# How the values were obtained:
# [1] = test system: skin (forearms of volunteer human test subjects); test: Orienting skin compatibility in humans (ointments on forearm); assay type: in vivo; details: 0.44% ointment, 16 hours, doubled to 0.88% after 3 days if no reaction
# Procedure: Ointments, each containing individually 0.44% of compounds […] and K were applied to the forearms of volunteer human test subjects, covered with bandage gauze and allowed to remain on the skin for 16 hours. After 16 hours the ointments were washed off with soap solution, and the skin irritation and discoloration, if any, were evaluated visually and photographed. Then, the test ointments were again administered and allowed to remain on the skin until the next day. Again, the reactions were evaluated and a new treatment was started.
# [2] = target: glucose-6-phosphate-dihydrogenase; test: Inhibition of glucose-6-phosphate-dihydrogenase after 120 minutes incubation; assay type: biochemical; details: 37° C., pH 7.6, REED and MUENCH
# Procedure: The inhibiting effect upon enzymes was determined by measurement of the inhibition of glucose-6-phosphate-dihydrogenase.
# The following equilibrium was observed: [drawing 5] (NADP-nicotinamide-adenine-dinucleotide-phosphate). The rate of formation of NADPH is a measure of the enzyme activity; it can be measured by means of the increase in extinction at […] per unit of time.
# 0.025 ml of glucose-6-phosphate-dihydrogenase were diluted to 10 ml with distilled water (Solution I). 100 mg of nicotinamide-adenine-dinucleotide-phosphate were dissolved in 13 ml of distilled water (Solution II). 47.2 mg of glucose-6-phosphate were dissolved in another 10 ml of distilled water (Solution III). Besides this, a buffer solution (Solution IV) was prepared as follows:
# 0.28 gm of triethanolamine hydrochloride and 1.461 gm of ethylene-diamine tetraacetic acid disodium salt were dissolved in 1 liter of distilled water, and the solution was adjusted to pH 7.6 with sodium hydroxide. The substance to be tested was dissolved in dimethyl formamide or ethanol (Solution V). Tested end-concentrations: 25, 12.5, 6.25, 3.125, 1.56 and 0.78 μg/ml.
# A mixture of 0.1 ml of Solution I, 0.1 ml of Solution II, 2.67 ml of Solution IV and 0.03 ml of Solution V was kept at 37° C. for 120 minutes. After addition of 0.1 ml of Solution III and thorough mixing, the change in extinction was measured photometrically at 366 nm over 3 minutes. The inhibition values were calculated from the average values of 3 measurements (as change of extinction per minute), compared to controls to which the pure solvent was added as inhibitor solution. The ED50 was calculated according to the method of REED and MUENCH from the inhibiting values of the different concentrations. The following table contains the values thus determined: […]
# guinea pigs = test: Sensitizing activity on guinea pigs; assay type: in vivo, guinea pig (Perbright White strain); details: 1:10 to 1:50 of the original concentrations, behind the ears
# Procedure: The sensitizing activity was tested 2 weeks after the skin compatibility test with 1:10 to 1:50 of the originally used concentrations behind the ears.
# [3] = Penetration and metabolization in the skin in vitro; assay type: in vitro ADME, pig; details: thin-layer chromatography; for penetration into the layers of the skin: same carriers
# skin of guinea pigs = test: Skin compatibility test on guinea pigs; assay type: in vivo, guinea pig (Perbright White strain); details: for Sum of the reactions divided by the number of animals: score 0 no irritation to 3 very strong erythema; for skin compatibility compared with compound A: Table 3
# Procedure: Guinea pigs of the Perbright White strain, with a body weight of about 350 gm, were fed with standard guinea pig feed (Altromin 3022) and water ad lib.
# During the test, the animals were kept in single cages. The test substances, which were dissolved in a well compatible solvent, were applied to the skin of the animals (diameter of the test area 3.5 cm) daily for 3 weeks, from Monday to Friday. The animals were shaved each Monday, Wednesday and Friday in the early morning, the treatment with the test substances was performed in the early afternoon. Immediately before administration of the substance, the skin reaction was tested. The evaluation was carried out visually, and erythema, edema, and mycosis of the skin were considered.
# The following evaluation was made:
# 2: strong erythema with beginning edema
# 3: very strong erythema with edema or beginning necrosis.
# The numerical sum of the reactions was used for the total evaluation of a group of animals.
# [4] = Natural color of the substance (UV-absorption, FIG. 1); assay type: physicochemical; details: shortwave portion of visible light, beginning at 380 nm
# Source text: Topically administrable substances which are colored are undesirable for cosmetic reasons and also because the lingerie may become soiled. […] This is also expressed by the optic impression of the preparations. […] This is a further advantage compared with dithranol.
# mouse = test: Acute toxicity in the mouse; assay type: in vivo
# Procedure: (§1) The acute toxicity was determined in the mouse and in the rat. Determined was the LD50, i.e. the dose after administration of which 50% of the animals died within 14 days, or it was determined how many of the 10 treated animals died within the period of observation.
# skin [5] = test: Skin compatibility under occlusion, method of Mustakallio; assay type: in vivo; details: 4 to 128 mmols in white vaseline, after 4 and after 16 hours of occlusion
# Procedure: In a further test, according to the method of Mustakallio, compound A was applied at concentrations of 1, 2, 4, 8, 16, 32 mmols in white vaseline and allowed to remain on the skin for 4 hours under occlusion. Compounds C and K, however, were applied at concentrations of 4, 8, 16, 32, 64, 128 mmols, also in white vaseline, and allowed to remain on the skin for 16 hours under occlusion. […] This means that the novel compounds are more compatible by a factor of at least 64.
# skin [6] = details: literature or prior use; cited from earlier work
# psoriasis = details: cited from earlier work; for antipsoriatic activity: literature or prior use
# rat = test: Acute toxicity in the rat; assay type: in vivo; details: 2000 mg/kg
# Procedure: as §1
# [7] = Acute toxicity in the rat; assay type: in vivo; details: in vivo, ip, within 14 days
# Procedure: as §1
# [8] = Acute toxicity in the mouse; assay type: in vivo; details: in vivo, ip, within 14 days
# Procedure: as §1
structure (smiles),measurement,setting,value
"Cc1cc(O)c2c(c1)Cc1cccc(O)c1C2=O [Compound B, 1,8-Dihydroxy-3-methyl-9-(10H)-anthracenone, reference compound]",discoloration of the skin,[1],skin discoloration similar to compound A
same,"ED50, inhibition of incubation after 120 minutes",[2],6.86 µg/mL
"CC(C)(C)c1ccc2c(c1O)C(=O)c1c(ccc(C(C)(C)C)c1O)C2 [Compound K, 2,7-Di-tert. butyl-1,8-dihydroxy-9-(10H)anthracenone]",sensitization,guinea pigs,no sensitization
same,penetration into the layers of the skin,[3],penetrate to an approximately equal extent
same,metabolization in the skin,[3],metabolized in a similar manner
same,Sum of the reactions divided by the number of animals,"skin of guinea pigs; 0.03%, end of 1st week",0.00
same,Sum of the reactions divided by the number of animals,"skin of guinea pigs; 0.03%, end of 2nd week",0.042
same,Sum of the reactions divided by the number of animals,"skin of guinea pigs; 0.03%, end of 3rd week",0.00
same,skin compatibility compared with compound A,skin of guinea pigs,considerably more skin-compatible than compound A
same,UV-absorption / yellow color,[4],significantly less UV-absorption
same,Number of dead animals,"mouse; i.p., 1000 mg/kg",0/10
same,Number of dead animals,"mouse; p.o., 4000 mg/kg",0/10
same,Number of dead animals,"mouse; sc., 1000 mg/kg",0/10
same,skin irritations or discolorations,skin [5],no skin irritations or discolorations could be observed
same,"ED50, inhibition of incubation after 120 minutes",[2],7.77 µg/mL
"CC(C)c1cc(C(C)C)c2c(c1O)C(=O)c1c(O)cccc1C2 [G, 1,8-Dihydroxy-2,4-diisopropyl-9-(10H)anthracenone]",discoloration of the skin,[1],no skin irritation or discoloration of the skin
same,skin irritation,[1],no skin irritation
same,penetration into the layers of the skin,[3],penetrate to an approximately equal extent
same,metabolization in the skin,[3],metabolized in a similar manner
same,"ED50, inhibition of incubation after 120 minutes",[2],5.67 µg/mL
CC(=O)C1c2cccc(O)c2C(=O)c2c(O)cccc21 [10-Acetyl-dithranol],skin irritation and/or discoloration,skin [6],discolored and irritated the skin at concentrations from 0.5% even more than the starting compound
"O=C1c2c(O)cccc2Cc2c(Cl)ccc(O)c21 [H, 4-Chloro-1,8-dihydroxy-9-(10H)anthracenone]","ED50, inhibition of incubation after 120 minutes",[2],3.85 µg/mL
"O=C1c2c(O)cccc2Cc2ccc(C3CCCCC3)c(O)c21 [Compound I, 2-Cyclohexyl-1,8-dihydroxy-9-(10H)anthracenone]","ED50, inhibition of incubation after 120 minutes",[2],3.94 µg/mL
"CCCCC(C)c1ccc2c(c1O)C(=O)c1c(O)cccc1C2 (centres unmarked) [E, 2-(2-Hexyl)-1,8-dihydroxy-9-(10H)anthracenone]",discoloration of the skin,[1],no skin irritation or discoloration of the skin
same,skin irritation,[1],no skin irritation
same,"ED50, inhibition of incubation after 120 minutes",[2],3.61 µg/mL
O=CCCC1(CCC=O)c2cccc(O)c2C(=O)c2c(O)cccc21 [bis-(formylethyl)-dithranol],skin irritation and/or discoloration,skin [6],no irritation and discoloration
same,antipsoriatic activity,psoriasis,did not exhibit any antipsoriatic activity
"CC(=O)Oc1cccc2cc3cccc(OC(C)=O)c3c(OC(C)=O)c12 [dithranol triacetate, 1,8,9-Triacetoxyanthracene]",skin irritation and/or discoloration,skin [6],less skin irritation
same,antipsoriatic activity,psoriasis,less active than dithranol
same,therapeutic index,"psoriasis; literature, compared with dithranol",a real improvement of the therapeutic index could not be obtained
"CC(C)(C)c1ccc2c(c1O)C(=O)c1c(O)cccc1C2 [D, 2-tert. Butyl-1,8-dihydroxy-9-(10H)anthracenone]",discoloration of the skin,[1],no skin irritation or discoloration of the skin
same,skin irritation,[1],no skin irritation
same,sensitization,guinea pigs,no sensitization
same,Sum of the reactions divided by the number of animals,"skin of guinea pigs; 0.03%, end of 1st week",0.083
same,Sum of the reactions divided by the number of animals,"skin of guinea pigs; 0.03%, end of 2nd week",0.042
same,Sum of the reactions divided by the number of animals,"skin of guinea pigs; 0.03%, end of 3rd week",0.00
same,skin compatibility compared with compound A,skin of guinea pigs,considerably more skin-compatible than compound A
same,"ED50, inhibition of incubation after 120 minutes",[2],6.32 µg/mL
"CC(C)c1ccc(O)c2c1Cc1cccc(O)c1C2=O [Compound F, 1,8-Dihydroxy-4-isopropyl-9-(10H)anthracenone]",discoloration of the skin,[1],no skin irritation or discoloration of the skin
same,skin irritation,[1],no skin irritation
same,sensitization,guinea pigs,no sensitization
same,Sum of the reactions divided by the number of animals,"skin of guinea pigs; 0.015%, end of 1st week",0.085
same,Sum of the reactions divided by the number of animals,"skin of guinea pigs; 0.015%, end of 2nd week",0.085
same,Sum of the reactions divided by the number of animals,"skin of guinea pigs; 0.015%, end of 3rd week",0.085
same,Sum of the reactions divided by the number of animals,"skin of guinea pigs; 0.045%, end of 1st week",0.085
same,Sum of the reactions divided by the number of animals,"skin of guinea pigs; 0.045%, end of 2nd week",0.085
same,Sum of the reactions divided by the number of animals,"skin of guinea pigs; 0.045%, end of 3rd week",0.085
same,skin compatibility compared with compound A,skin of guinea pigs,considerably more skin-compatible than compound A
same,Number of dead animals,rat; p.o.,0/10
same,Number of dead animals,rat; sc.,0/10
same,LD50 at 336 h,[7],45 mg/kg
same,Number of dead animals,"mouse; p.o., 2000 mg/kg",0/10
same,Number of dead animals,"mouse; sc., 2000 mg/kg",0/10
same,LD50 at 336 h,[8],52 mg/kg
same,"ED50, inhibition of incubation after 120 minutes",[2],5.35 µg/mL

# Reference: US4327114A, “Substituted 1,8-dihydroxy-9-(10H)anthracenones” (Boehringer Ingelheim GmbH, priority 1980, dated 1982)
